This note sets out measurements from patent US20260200946A1, “KRAS(G12V) INHIBITORS” (Ranok Therapeutics (Hangzhou) Co. Ltd., priority 2022, published 2026).

One assay has as its system NCIH727 cells. In words: Cancer cell line proliferation (CellTiter-Glo), NCI-H727. Type of assay: cell-based. Particulars: Homo sapiens, 72 h, NCIH727 lung carcinoid, heterozygous G12V. As for the experimental part:
Cell lines were cultured essentially according to ATCC recommendations.
SW620 and NCIH727 cells were plated in 384-well tissue culture plates at 1,000 cells/well and incubated at 37° C./5% CO2 for 72 hr in 40 μl of media. […] Each cell line was then treated with test compounds at various concentrations with a final concentration of 0.5% DMSO/well, and then incubated at 37° C./5% CO2 for 72 hr. 40 μl of CellTiter-Glo® Reagent (Promega Corporation, Madison, WI) was added to each well and processed according manufacturer's protocol. Results were analyzed and IC50 values were calculated in GraphPad 8.0 software.
By EC50 is commonly meant the concentration at which the effect is half-maximal. A high value points to a need for much substance. In the case of `C#Cc1c(F)ccc2cc(O)cc(-c3nc(OC)c4c(N5CC6CCC(C5)N6C(=O)C[C@H](C)C#N)nc(OCC5(CN6CC7CC7C6)CC5)nc4c3F)c12` (single isomer, unassigned) [Example 178], the EC50 is 100 to 1000 nM.

As for `C#Cc1c(F)ccc2cc(O)cc(-c3nc(OC)c4c(N5CC6CCC(C5)N6C(=O)C5(F)CC5)nc(OCC5(CN6CCC(F)CC6)CC5)nc4c3F)c12` [Example 66], the EC50 lay within 100 to 1000 nM.

Take `C#Cc1c(F)ccc2cc(O)cc(-c3nc(OC)c4c(N5CC6CCC(C5)N6C(=O)NCC(C)(C)F)nc(OCC5(CN6CCC(F)CC6)CC5)nc4c3F)c12` [Example 67]: the EC50 was in the range of 100 to 1000 nM.

Turning to `C#Cc1c(F)ccc2cc(O)cc(-c3nc(OC)c4c(N5CC6CCC(C5)N6C(=O)N[C@H]5C[C@H]5F)nc(OCC5(CN6CCC(F)CC6)CC5)nc4c3F)c12` [Example 68], the EC50 is greater than 1000 nM.

The compound `C#Cc1c(F)ccc2cc(O)cc(-c3nc(OC)c4c(N5CC6CCC(C5)N6C(=O)[C@H]5CC5(F)F)nc(OCC5(CN6CCC(F)CC6)CC5)nc4c3F)c12` [Example 69] displayed an EC50 of less than 100 nM.

The compound `C#Cc1c(F)ccc2cc(O)cc(-c3nc(OC)c4c(N5CC6CCC(C5)N6CC5COC5)nc(OCC5(CN6CCC(F)CC6)CC5)nc4c3F)c12` [Example 70] yielded an EC50 greater than 1000 nM.

`C#Cc1c(F)ccc2cc(O)cc(-c3nc(OC)c4c(N5CC6CCC(C5)N6C(=O)[C@@H]5CC5(F)F)nc(OCC5(CN6CCC(F)CC6)CC5)nc4c3F)c12` [Example 72] had an EC50 of 100 to 1000 nM.

Compound `C#Cc1c(F)ccc2cc(O)cc(-c3nc(OC)c4c(N5CC6CCC(C5)N6C(=O)N[C@@H]5C[C@H]5F)nc(OCC5(CN6CCC(F)CC6)CC5)nc4c3F)c12` [Example 73] returned an EC50 of 100 to 1000 nM.

The compound `C#Cc1c(F)ccc2cc(O)cc(-c3nc(C#C)c4c(N5CC6CCC(C5)N6C(=O)NC(C)(C)C)nc(OCC5(CN6CCC(F)CC6)CC5)nc4c3F)c12` [Example 74] came in with an EC50 of 100 to 1000 nM.

In turn, `C#Cc1c(F)ccc2cc(O)cc(-c3nc(OC)c4c(N5CC6CCC(C5)N6C(=O)NCC5(F)COC5)nc(OCC5(CN6CCC(F)CC6)CC5)nc4c3F)c12` [Example 75] returned an EC50 of 100 to 1000 nM.

As for `C#Cc1c(F)ccc2cc(O)cc(-c3nc(OC)c4c(N5CC6CCC(C5)N6C(=O)NCC(F)(F)CO)nc(OCC5(CN6CCC(F)CC6)CC5)nc4c3F)c12` [Example 76], the EC50 was in the range of 100 to 1000 nM.

`C#Cc1c(F)ccc2cc(O)cc(-c3nc(OC)c4c(N5CC6CCC(C5)N6C(=O)C5C[C@H]5F)nc(OCC5(CN6CCC(F)CC6)CC5)nc4c3F)c12` (some centres unmarked) [Example 77] showed an EC50 of less than 100 nM.

`C#Cc1c(F)ccc2cc(O)cc(-c3nc(OC)c4c(N5CC6CCC(C5)N6C(=O)[C@H]5C[C@@H]5F)nc(OCC5(CN6CCC(F)CC6)CC5)nc4c3F)c12` [Example 78] showed an EC50 of 100 to 1000 nM.

Compound `C#Cc1c(F)ccc2cc(O)cc(-c3nc(OC)c4c(N5CC6CCC(C5)N6C(=O)NC5CCC(F)(F)C5)nc(OCC5(CN6CCC(F)CC6)CC5)nc4c3F)c12` (centres unmarked) [Example 79] gave an EC50 of 100 to 1000 nM.

As for `C#Cc1c(F)ccc2cc(O)cc(-c3nc(OC)c4c(N5CC6CCC(C5)N6C(=O)C5C[C@H]5C#N)nc(OCC5(CN6CCC(F)CC6)CC5)nc4c3F)c12` (some centres unmarked) [Example 80], the EC50 was less than 100 nM.

`C#Cc1c(F)ccc2cc(O)cc(-c3nc(OC)c4c(N5CC6CCC(C5)N6C(=O)N[C@H]5CCC(F)(F)C5)nc(OCC5(CN6CCC(F)CC6)CC5)nc4c3F)c12` [Example 81] returned an EC50 of less than 100 nM.

Compound `C#Cc1c(F)ccc2cc(O)cc(-c3nc(OC)c4c(N5CC6CCC(C5)N6C(=O)N[C@@H]5CCC(F)(F)C5)nc(OCC5(CN6CCC(F)CC6)CC5)nc4c3F)c12` [Example 82] showed an EC50 of 100 to 1000 nM.

On to `C#Cc1c(F)ccc2cc(O)cc(-c3nc(OC)c4c(N5CC6CCC(C5)N6C(=N)NCC(F)(F)F)nc(OCC5(CN6CCC(F)CC6)CC5)nc4c3F)c12` [Example 85], for which the EC50 is greater than 1000 nM.

As for `C#Cc1c(F)ccc2cc(O)cc(-c3nc(OC)c4c(N5CC6CCC(C5)N6C(=O)NC5CC5(F)F)nc(OCC5(CN6CCC(F)CC6)CC5)nc4c3F)c12` (centres unmarked) [Example 86], the EC50 was 100 to 1000 nM.

Compound `C#Cc1c(F)ccc2cc(O)cc(-c3nc(OC)c4c(N5CC6CCC(C5)N6C(=O)NC5CC[C@@H](F)C5)nc(OCC5(CN6CCC(F)CC6)CC5)nc4c3F)c12` (some centres unmarked) [Example 87] returned an EC50 of 100 to 1000 nM.

In turn, `C#CCNC(=O)N1C2CCC1CN(c1nc(OCC3(CN4CCC(F)CC4)CC3)nc3c(F)c(-c4cc(O)cc5ccc(F)c(C#C)c45)nc(OC)c13)C2` [Example 88] showed an EC50 of less than 100 nM.

The compound `C#Cc1c(F)ccc2cc(O)cc(-c3nc(OC)c4c(N5CC6CCC(C5)N6C(=O)NC5CCC5)nc(OCC5(CN6CCC(F)CC6)CC5)nc4c3F)c12` [Example 89] displayed an EC50 of less than 100 nM.

For `C#Cc1c(F)ccc2cc(O)cc(-c3nc(OC)c4c(N5CC6CCC(C5)N6C(=O)Nc5cc(F)cc(F)c5)nc(OCC5(CN6CCC(F)CC6)CC5)nc4c3F)c12` [Example 90], the EC50 was in the range of 100 to 1000 nM.

As for `C#Cc1c(F)ccc2cc(O)cc(-c3nc(OC)c4c(N5CC6CCC(C5)N6C(=O)NC5CC(F)C5)nc(OCC5(CN6CCC(F)CC6)CC5)nc4c3F)c12` (centres unmarked) [Example 91], the EC50 was less than 100 nM.

For `C#Cc1c(F)ccc2cc(O)cc(-c3nc(OC)c4c(N5CC6CCC(C5)N6C(=O)NC(C)C#N)nc(OCC5(CN6CCC(=C)CC6)CC5)nc4c3F)c12` (centres unmarked) [Example 93], the EC50 was less than 100 nM.

As to `C#Cc1c(F)ccc2cc(O)cc(-c3nc(C#C)c4c(N5CC6CCC(C5)N6C(=O)C5CC5(F)F)nc(OCC5(CN6CCC(F)CC6)CC5)nc4c3F)c12` (centres unmarked) [Example 94], the EC50 is 100 to 1000 nM.

`C#Cc1c(F)ccc2cc(O)cc(-c3nc(C#C)c4c(N5CC6CCC(C5)N6C(=O)NC5CC5)nc(OCC5(CN6CCC(F)CC6)CC5)nc4c3F)c12` [Example 95] returned an EC50 of 100 to 1000 nM.

The compound `C#CCNC(=O)N1C2CCC1CN(c1nc(OCC3(CN4CCC(F)CC4)CC3)nc3c(F)c(-c4cc(O)cc5ccc(F)c(C#C)c45)nc(C#C)c13)C2` [Example 96] returned a 50% effective concentration (EC50) of 100 to 1000 nM.

For `C#Cc1c(F)ccc2cc(O)cc(-c3nc(OC)c4c(N5CC6CCC(C5)N6C(=O)Nc5ccc6c(c5)CCO6)nc(OCC5(CN6CCC(F)CC6)CC5)nc4c3F)c12` [Example 97], the EC50 is 100 to 1000 nM.

In turn, `C#Cc1c(F)ccc2cc(O)cc(-c3nc(C#C)c4c(N5CC6CCC(C5)N6C(=O)NCC(F)(F)F)nc(OCC5(CN6CCC(F)CC6)CC5)nc4c3F)c12` [Example 100] came in with an EC50 of 100 to 1000 nM.

`C#Cc1c(F)ccc2cc(O)cc(-c3nc(OC)c4c(N5CC6CCC(C5)N6C(=O)[C@H]5CC5(F)F)nc(OCC5(CN6CC7CC7C6)CC5)nc4c3F)c12` (some centres unmarked) [Example 102] displayed an EC50 of less than 100 nM.

In turn, `C#Cc1c(F)ccc2cc(O)cc(-c3nc(C#C)c4c(N5CC6CCC(C5)N6C(=O)CCC#N)nc(OCC5(CN6CCC(F)CC6)CC5)nc4c3F)c12` [Example 103] gave a half-maximal effective concentration (EC50) of 100 to 1000 nM.

Staying with this assay, now noted: NCIH727 lung carcinoid, heterozygous G12V, 72 hr.
The compound `C#Cc1c(F)ccc2cc(O)cc(-c3nc(OC)c4c(N5CC6CCC(C5)N6C(=O)C5C[C@H]5C#N)nc(OCC5(CN6CCC(F)CC6)CC5)nc4c3F)c12` (some centres unmarked) [Example 83] yielded an EC50 of 100 to 1000 nM.

Take `C#Cc1c(F)ccc2cc(O)cc(-c3nc(OC)c4c(N5CC6CCC(C5)N6C(=O)C5C[C@H]5C#N)nc(OCC5(CN6CCC(F)CC6)CC5)nc4c3F)c12` (some centres unmarked) [Example 84]: the concentration giving a half-maximal response (EC50) is less than 100 nM.

`C#Cc1c(F)ccc2cc(O)cc(-c3nc(OC)c4c(N5CC6CCC(C5)N6C(=O)NC5CC(F)C5)nc(OCC5(CN6CCC(F)CC6)CC5)nc4c3F)c12` (centres unmarked) [Example 92] had a concentration for a half-maximal effect (EC50) of 100 to 1000 nM.
